Results published in patent US9359399B2, “Synthetic peptide amides” (Cara Therapeutics, Inc., priority 2006, dated 2016).
Square brackets hold non-standard residues; d marks the D form. Peptide text beside a SMILES is read from it. * marks the point of attachment. Piperidinyl(4-(1-Pro-OH)) = O=C(O)[C@@H]1CCCN1C1CCN(*)CC1; dDab = NCC[C@@H](N)C(=O)O

Columns and labels:
[1] = tested on: capsaicin-induced ocular pain; test: Capsaicin-induced ocular pain, palpebral opening in rabbits; assay type: in vivo, albino New Zealand strain rabbits; conditions: 10-30 min. post capsaicin
in vitro = conditions: human, Caco-2
[2] = Membrane permeability assay, Caco-2 TC7 monolayers, apical-to-basolateral (Cerep); conditions: human
[3] = biological target: human kappa opioid receptor (hKOR) (Homo sapiens (Human), UniProt P41145); test: cell-based; conditions: HEK293, read-out: hKOR Efficacy(%)
CYP3A4 = CYP3A4 (Homo sapiens (Human), UniProt P08684); test: Cytochrome P450 CYP3A4 inhibition in human liver microsomes (midazolam); conditions: percent remaining CYP activity, 10 uM test compound, 20 minutes
CYP2C19 = CYP2C19 (Homo sapiens (Human), UniProt P33261); test: Cytochrome P450 CYP2C19 inhibition in human liver microsomes (omeprazole); conditions: percent remaining CYP activity, 10 uM test compound, 15 minutes
CYP2D6 = CYP2D6 (Homo sapiens (Human), UniProt P10635); test: Cytochrome P450 CYP2D6 inhibition in human liver microsomes (dextromethorphan); conditions: percent remaining CYP activity, 10 uM test compound, 15 minutes
CYP1A = test: Cytochrome P450 CYP1A inhibition in human liver microsomes (ethoxyresorufin); assay type: in vitro ADME; conditions: percent remaining CYP activity, 10 uM test compound, 15 minutes
Procedure: Inhibition of cytochrome P450 oxidase isozymes CYP1A, CYP2C9, CYP2C19, CYP2D6 and CYP3A4 by synthetic peptide amide compounds of the invention was determined according to the following methods performed by Cerep (Seattle, Wash.):
In the cytochrome P450 CYP1A assay, human liver microsomes (0.2 mg/ml protein) were incubated for 15 minutes at 37° C. with 10 uM test compound, 1 uM ethoxyresorufin, 1.3 mM NADP, 3.3 mM glucose-6-phosphate and 0.4 U/ml glucose-6-phosphate dehydrogenase. In the absence of test compound, the ethoxyresorufin added as substrate is oxidized to resorufin, and in the presence of an inhibitor of the CYP isozyme, the amount of resorufin produced is reduced. Furafylline was used as a reference inhibitor.
In each assay, the percent inhibition of the cytochrome P450 CYP P450 isozyme was determined as one hundred times the ratio of (1—the amount of product in the sample in the presence of the test compound) divided by the amount of product in the sample containing untreated isozyme.

CYP2C9 = CYP2C9 (Homo sapiens (Human), UniProt P11712); test: Cytochrome P450 CYP2C9 inhibition in human liver microsomes (tolbutamide); conditions: percent remaining CYP activity, 10 uM test compound, 15 minutes

## CN1CC[C@]23c4c5ccc(O)c4O[C@H]2[C@@H](O)C=C[C@H]3[C@H]1C5 [Morphine, morphine, reference compound]
[1]; Table VIII, 10 mg/ml, ten animals
  Mean palpebral opening (% Control): 74.8 % Control

## CC[C@]1(O)C[C@@H]2CN(CCc3c([nH]c4ccccc34)[C@@](C(=O)OC)(c3cc4c(cc3OC)N(C)[C@H]3[C@@](O)(C(=O)OC)[C@H](OC(C)=O)[C@]5(CC)C=CCN6CC[C@]43[C@@H]65)C2)C1 [Vinblastine, vinblastine]
In vitro
  Papp A→B at 60 min, 10 uM: < 0.2 ×10⁻⁶ cm/s

## CC(C)NCC(O)COc1cccc2ccccc12 (stereo not drawn) [Propranolol, propranolol]
In vitro
  Papp A→B at 60 min, 10 uM: 53.8 ×10⁻⁶ cm/s

## CN(C(=O)C(c1ccccc1)c1ccccc1)[C@H](CN1CC[C@H](O)C1)c1ccccc1 [Asimadoline, asimadoline, reference compound]
[2]
  Papp A→B at 60 min, 10 uM: 37.5 ×10⁻⁶ cm/s

## CC(C)C[C@@H](NC(=O)[C@@H](Cc1ccccc1)NC(=O)[C@H](N)Cc1ccccc1)C(=O)N[C@H](CCN)C(=O)N1CCC(N2CCC[C@H]2C(=O)O)CC1 [Compound (12), D-Phe-D-Phe-D-Leu-D-Dbu4N-(4-piperidinyl)-L-prolinel-OH] (H-[dF][dF][dL][dDab]-{Piperidinyl(4-(1-Pro-OH))})
[3]
  Emax: 100%

## CNCCCC[C@@H](NC(=O)[C@@H](CC(C)C)NC(=O)[C@@H](Cc1ccccc1)NC(=O)[C@H](N)Cc1ccccc1)C(=O)N1CCCN(C(=N)N)CC1 [Compound (1), D-Phe-D-Phe-D-Leu-(ε-Me)D-Lys-[4-Amidinohomopiperazine amide]]
CYP3A4
  Percent Activity of CYP3A4: 92.5%
CYP2C19
  Percent Activity of CYP2C19: 98.5%
CYP2D6
  Percent Activity of CYP2D6: 96.0%
CYP1A
  Percent Activity of CYP1A: 89.8%
CYP2C9
  Percent Activity of CYP2C9: 93.2%
[2]
  Papp A→B at 60 min, 10 uM: < 0.1 ×10⁻⁶ cm/s

## COc1ccc([C@@H]2Sc3ccccc3N(CCN(C)C)C(=O)[C@@H]2OC(C)=O)cc1 [Diltiazem, diltiazem, reference compound]
[1]; Table VII, 10 mM, five animals
  Mean palpebral opening (% Control): 74.6 % Control
[1]; Table VIII, 10 mM, ten animals
  Mean palpebral opening (% Control): 77.6 % Control

## CC(CCc1ccccc1)NCC(O)c1ccc(O)c(C(N)=O)c1 (stereo not drawn) [Labetalol, labetalol]
In vitro
  Papp A→B at 60 min, 10 uM: 9.9 ×10⁻⁶ cm/s

## CC(C)C[C@@H](NC(=O)[C@@H](Cc1ccccc1)NC(=O)[C@H](N)Cc1ccccc1)C(=O)N[C@H](CCCCNC(C)C)C(=O)N1CCC(N)(C(=O)O)CC1 [Compound (9), D-Phe-D-Phe-D-Leu-(8-iPr)D-Lys-[ω(4-aminopiperidine-4-carboxylic acid)]-OH]
[3]
  Emax: 100%
